No end group written: not given here.
Assays:
[1] = non-GLP pilot toxicology study, single IV administration, mouse; details: in vivo, IV injection over 30 to 60 seconds, actual dose, read-out: maximum tolerated dose (MTD) of a single administration
Procedure: (§1) Two pilot and 2 definitive repeat-dose toxicity studies were conducted with RIVPA (SEQ ID NO. 5) in mice and cynomolgus monkeys using the intravenous (IV; slow bolus) route of administration.
(§2) These resolved within a few minutes without detectable residual effects.

[2] = non-GLP pilot toxicology study in nonhuman primates; type: in vivo, cynomolgus monkeys; details: 90, 180 and 220 mg/kg; NHP; resolved within a few minutes
Procedure: as §1, §2

[3] = distribution of radiolabelled RIVPA to the mouse CNS; type: in vivo; details: dose levels of 20 or 90 mg/kg
Procedure: No effects of RIVPA (SEQ ID NO. 5) have been observed on the central nervous system (CNS) in any study at any dose level and little or no radiolabelled RIVPA (SEQ ID NO. 5) was found in the mouse CNS at dose levels of either 20 or 90 mg/kg.

[4] = cardiovascular (CV)/pulmonary safety pharmacology study; type: in vivo, cynomolgus monkey
Description: In 1 animal, the high dose caused a marked reduction in respiratory rate followed by bradycardia, hypotension and death.
In summary, the major toxicological finding was an acute-onset respiratory depression, accompanied by labored breathing, recumbency and transient decreased activity.

mouse normal blood cells = assay: proliferation of normal blood cells in vitro (mouse); type: cell-based
[5] = tested on: primary human leukemia cells; assay: proliferation of primary leukemia cells in vitro; type: cell-based
[6] = toxicology and PK studies in mice with alternate routes of administration; details: mouse, in vivo, other: intraperitoneal or subcutaneous
[7] = Phase 1 study in healthy volunteers, safety (SAD and MAD phases); type: in vivo, human
Description: Clinical experience with RIVPA (SEQ ID NO. 5) was obtained in a Phase 1 Study. The primary objective of the study was to determine the maximum tolerated dose (MTD) of single and repeat ascending doses of RIVPA (SEQ ID NO. 5) injectable solution following IV administration in healthy volunteers. The secondary objectives of this study included the assessment of the dose limiting toxicity (DLT), safety, PK and pharmacodynamic (PD) profiles of RIVPA (SEQ ID NO. 5) after single and repeated ascending IV doses of RIVPA (SEQ ID NO. 5). The study was divided into 2 phases: a single-ascending dose (SAD) phase and a multiple-ascending dose (MAD) phase.
Single IV doses of RIVPA (SEQ ID NO. 5) were well tolerated up to the maximum tested (8 mg/kg) and daily IV doses were well tolerated up to the maximum tested (6.5 mg/kg for 7 days). There were no dose limiting toxicities (DLTs) and the MTD was not reached in either phase of the trial. There were no deaths and no clinically significant, severe, or serious Adverse Events (AEs) reported during the study.
The most frequently reported TEAEs (observed in more than one subject who received RIVPA (SEQ ID NO. 5) and in a higher proportion (%) than placebo subjects) were study treatment procedure-related events (General Disorders and Administration Site Conditions) such as vessel puncture site haematoma, vessel puncture site reaction and vessel puncture site pain. All vessel puncture-related events were mild and determined to be unrelated to study treatment by the QI. The second most frequently reported TEAEs were Nervous System Disorders, specifically headache and dizziness; these events were only mild to moderate. All other TEAEs were reported by only 1 subject at any given dose level (maximum of 3 dose levels).
The incidence of “possibly-related” events was also higher in the 2 highest dose levels. However, due to the small sample sizes (4 subjects received active treatment in each cohort), it was not possible to conclude whether the results definitely represented a dose-response. The majority of the TEAEs were not related to study treatment and were mild in severity with only one event reported as moderate. The most frequently reported TEAEs for subjects who received RIVPA (SEQ ID NO. 5) were General Disorders and Administration Site Conditions (i.e., procedure-related events) such as vessel puncture site haematoma, vessel puncture site reaction, and vessel puncture site pain. All vessel puncture-related events were mild and judged to be unrelated to treatment. Increased alanine aminotransferase (ALT) and back pain were reported by 3 (15.0%) subjects who received RIVPA (SEQ ID NO. 5) and these events were observed by only one (10.0%) subject who received the placebo.

whole blood = assay: ex vivo LPS stimulation of whole blood from Phase 1 subjects, cytokine/chemokine Activity Ratios; type: cell-based, human; details: dose range 0.15-2 mg/kg; 4 hours in vitro LPS stimulation of whole blood
Procedure: In ex vivo investigations using blood samples obtained during the Phase 1 healthy human volunteer study, a number of cytokine and chemokine analytes were quantified after 4 hours of in vitro stimulation of whole blood with LPS. The inter-individual variability in analyte levels was larger than any variation in time or response to RIVPA (SEQ ID NO. 5) or placebo administration and the data were therefore self-normalized using the individual pre-dose analyte level to standardize all responses for each individual subject (the Activity Ratio). RIVPA (SEQ ID NO. 5) effects on the analyte Activity Ratios (ARs) were neither constant throughout time, nor linearly dose responsive.

[8] = acute toxicity (respiratory depression) dose levels, mouse; type: in vivo
Procedure: (§3) The observed respiratory depression occurred at different dose levels in different species, and was not predicted by allometric scaling. In particular, the mouse appeared to be the most sensitive species with acute toxicity occurring rarely at 60 mg/kg (HED: ˜5 mg/kg) and commonly at 90 mg/kg (HED: ˜7 mg/kg). In contrast in NHP (cynomologus monkey), acute toxicity occurred occasionally at 160 mg/kg (HED: ˜50 mg/kg) and consistently at 240 mg/kg (HED: ˜78 mg/kg).

[9] = acute toxicity (respiratory depression) dose levels, NHP; type: in vivo, cynomologus monkey
Procedure: as §3

[10] = biological target: Sequestosome-1, also known as p62 (Homo sapiens, UniProt Q13501); details: cited from earlier work
[11] = single IV doses of 20 or 80 mg/kg

Sequence of Sequestosome-1, also known as p62 (Q13501 whole entry): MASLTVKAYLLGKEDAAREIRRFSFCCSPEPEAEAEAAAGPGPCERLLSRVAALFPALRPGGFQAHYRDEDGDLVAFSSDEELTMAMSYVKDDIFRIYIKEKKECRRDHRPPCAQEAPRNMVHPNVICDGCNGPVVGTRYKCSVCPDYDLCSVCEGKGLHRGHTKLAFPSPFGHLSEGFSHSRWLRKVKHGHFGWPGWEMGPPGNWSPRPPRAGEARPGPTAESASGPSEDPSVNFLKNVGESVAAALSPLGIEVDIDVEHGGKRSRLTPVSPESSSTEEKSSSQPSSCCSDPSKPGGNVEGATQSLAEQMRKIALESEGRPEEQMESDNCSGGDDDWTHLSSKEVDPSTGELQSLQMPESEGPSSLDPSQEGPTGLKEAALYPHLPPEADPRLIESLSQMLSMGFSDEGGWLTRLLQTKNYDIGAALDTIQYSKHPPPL

RIVPA-NH2 [RIVPA, L-arginyl-L-isoleucyl-L-valyl-L-prolyl-L-alanine-amide]
MTD [1]: 88 mg/kg | clinical signs during and shortly after dosing [2]: mild clinical signs | radiolabelled RIVPA found in the mouse CNS [3]: little or no | clinical signs at 220 mg/kg ([4]; 220 mg/kg, death in 1 animal): transient, severe clinical signs | cardiac toxicity or QT prolongation ([4]; nonhuman primates): no cardiac toxicity or QT prolongation | clinical signs at 80 mg/kg ([4]; single IV 80 mg/kg, during dosing): transient drooping eye lids and prostration | cardiovascular effects and ECG parameters [4, 11]: no cardiovascular effects or changes in electrocardiogram (ECG) parameters | respiratory effects [4, 11]: No respiratory effects were observed | proliferation of mouse normal blood cells (mouse normal blood cells): did not promote the proliferation | proliferation of primary human leukemia cells [5]: did not promote the proliferation | NOAEL [6]: > 200 mg/kg | subjects reporting increased alanine aminotransferase (ALT) and back pain ([7]; MAD phase, placebo one (10.0%) subject): 3 (15.0%) subjects | MTD in humans ([7]; either phase of the trial, no DLTs): not reached | single IV dose well tolerated up to the maximum tested ([7]; healthy volunteers, SAD phase): 8 mg/kg | daily IV dose well tolerated up to the maximum tested ([7]; healthy volunteers, daily for 7 days, MAD phase): 6.5 mg/kg | anti-inflammatory status (higher TNF RII and IL-1ra, lower TNFα and IL-1β) (whole blood): evidence of an increase | HED of dose at which acute toxicity occurs rarely ([8]; mouse 60 mg/kg): ~5 mg/kg | HED of dose at which acute toxicity occurs commonly ([8]; mouse 90 mg/kg): ~7 mg/kg | HED of dose at which acute toxicity occurs occasionally ([9]; NHP 160 mg/kg): ~50 mg/kg | HED of dose at which acute toxicity occurs consistently ([9]; NHP 240 mg/kg): ~78 mg/kg | binding to p62 [10]: binds
